# Measured values reported in patent publication US20140162285A1, “Methods of Modulating Vesicular Trafficking” (The General Hospital Corporation, priority 2009, published 2014).
# Entries after “also recorded” stand apart in the source; their conditions may differ. Peptide text beside a SMILES is read from it. * marks the point of attachment. Biotin = O=C1N[C@H]2[C@H](CS[C@H]2CCCCC(=O)*)N1
# Key:
# [1] = biological target: T1, Sec7-domain of ARNO (Homo sapiens, UniProt Q99418); experiment: a2N-derived peptide pull-down with GST-Sec7 domain; type: binding; details: GST-Sec7-6His
# T1 construct: iii) 61-252aa, Sec7 domain; GST (N, cleaved yes); made in house; host or cells: E. coli BL21(DE3)
# T1 sequence (Q99418 61-252): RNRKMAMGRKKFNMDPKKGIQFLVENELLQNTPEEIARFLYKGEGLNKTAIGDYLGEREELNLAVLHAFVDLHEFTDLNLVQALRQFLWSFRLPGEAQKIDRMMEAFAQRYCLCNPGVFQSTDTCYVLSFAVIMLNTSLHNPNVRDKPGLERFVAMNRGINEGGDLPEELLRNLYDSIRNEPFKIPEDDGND
# Protocol: FIGS. 5A-C are a set of three images of Western blots showing the identification of interaction motif of a2N that is involved in specific binding with the Sec7 domain of ARNO. 5A, The catalytic Sec7 domain of ARNO interacts with two a2N-derived peptides, a2N-01 and a2N-03, in pull-down experiments. The peptide pull-down assay was performed with six a2N-derived interaction peptides immobilized on streptavidin-beads and incubated with purified recombinant GST-only or GST-Sec7 domain. Interacting complexes were eluted and analyzed by Western blotting using monoclonal anti-GST antibodies as described below. The loading controls for GST-only (lane 1) or GST-Sec7 (lane 2) are shown. […] The peptide pull-down assay was performed with peptides a2N-01 and a2N-03 immobilized on streptavidin-beads and incubated with purified recombinant GST-PH domain (5B) or GST-PB domain (5C). Interacting complexes were eluted and analyzed by Western blotting using monoclonal anti-GST antibodies. […]
# These a2N-derived peptides were immobilized by an N-terminal biotin-tag, which ensured the same efficiency and equivalent binding to streptavidin-agarose beads. […] After washing beads four times in ice-cold binding buffer, the interacting complexes were eluted by boiling in SDS-PAGE sample buffer for 10 min at 95° C., resolved by SDS-PAGE and analyzed by Western blotting using monoclonal anti-GST antibody.
# [2] = biological target: T2, ARNO Sec7-domain (Homo sapiens, UniProt Q99418); experiment: GST pull-down of in vitro translated a2N with ARNO Sec7-domain; type: binding; details: Western blot anti-a2N
# T2 construct: iii) 61-252aa, Sec7 domain; made in house; host or cells: E. coli BL21(DE3)
# T2 sequence (Q99418 61-252): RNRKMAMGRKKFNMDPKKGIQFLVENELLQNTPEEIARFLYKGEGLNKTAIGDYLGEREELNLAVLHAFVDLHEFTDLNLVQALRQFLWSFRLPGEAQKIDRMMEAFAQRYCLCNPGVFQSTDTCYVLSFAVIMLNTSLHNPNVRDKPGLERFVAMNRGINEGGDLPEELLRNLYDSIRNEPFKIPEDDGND
# Protocol: The purified recombinant GST-ARNO(wt) and GST-tagged ARNO domain constructs ([…]) were incubated with 10 μl of in vitro translated 6His-a2N recombinant protein at 4° C. for 2 hours in 500 μl of binding buffer (10 mM HEPES, 1 mM EDTA, 1 mM DTT, 100 mM NaCl, 10% glycerol, 0.1% NP-40) with gentle rotation. Then the interacting recombinant proteins were immobilized on glutathione beads by incubation with 50 μl of 50% glutathione Sepharose 4B slurry for 2 hours at 4° C. The beads were collected by centrifugation and washed 5 times with 500 μl ice-cold binding buffer. Interacting proteins were eluted by boiling in SDS-PAGE sample buffer for 10 min at 95° C., resolved by SDS-PAGE and analyzed by Western blotting using polyclonal anti-a2N antibodies. […]
# To examine the ability of these well-defined and functionally distinct domains of ARNO to interact with a2N1-402, full-length ARNO(wt) and its four domains were cloned separately for bacterial expression of recombinant proteins (FIG. 3). […] Interacting proteins were detected by western blot analysis with a2-specific antibodies as described above.
Molecule,interaction with Sec7-domain of ARNO [1],interaction of a2N with ARNO Sec7-domain [2]
"CSCC[C@H](NC(=O)CCCC[C@@H]1SC[C@@H]2NC(=O)N[C@@H]21)C(=O)NCC(=O)N[C@@H](CO)C(=O)N[C@@H](CC(C)C)C(=O)N[C@@H](Cc1ccccc1)C(=O)N[C@@H](CCCNC(=N)N)C(=O)N[C@@H](CO)C(=O)N[C@@H](CCC(=O)O)C(=O)N[C@@H](CO)C(=O)N[C@@H](CCSC)C(=O)N[C@@H](CS)C(=O)N[C@@H](CC(C)C)C(=O)N[C@@H](C)C(=O)N[C@@H](CCC(N)=O)C(=O)N[C@@H](CC(C)C)C(=O)N[C@@H](Cc1ccccc1)C(=O)N[C@@H](CC(C)C)C(=O)N[C@@H](CS)C(=O)O [a2N-01, Bio-MGSLFRSE SMCLAQLFL-Cys] (Biotin-MGSLFRSESMCLAQLFLC-OH; N-terminus and C-terminus assumed)",interact; also recorded: specifically interacts,
"a2N: recombinant N-terminal cytosolic tail, amino acid residues 1-402 of mouse V-ATPase a2-subunit (protein, left off: small tags and cut ends, recombinant N-terminal cytosolic tail, amino acid residues 1-402 of mouse V-ATPase a2-subunit) MGSLFRSESMCLAQLFLQSGTAYECLSALGEKGLVQFRDLNQNVSSFQRKFVGEVKRCEELERILVYLVQEITRADIPLPEGEASPPAPPLKHVLEMQEQLQKLEVELREVTKNKEKLRKNLLELVEYTHMLRVTKTFLKRNVEFEPTYEEFPALENDSLLDYSCMQRLGAKLGFVSGLIQQGRVEAFERMLWRACKGYTIVTYAELDECLEDPETGEVIKWYVFLISFWGEQIGHKVKKICDCYHCHIYPYPNTAEERREIQEGLNTRIQDLYTVLHKTEDYLRQVLCKAAESVCSRVVQVRKMKAIYHMLNMCSFDVTNKCLIAEVWCPEVDLPGLRRALEEGSRESGATIPSFMNTIPTKETPPTLIRTNKFTEGFQNIVDAYGVGSYREVNPALFTII",,interacts strongly
